Ends that are not written are not given here.
Key:
[1] = test system: HT-29 colon adenocarcinoma cells; assay: O2- production by HT-29 cells (SOD inhibitable reduction of cytochrome c); assay type: cell-based; conditions: increasing doses
[2] = test system: rat aortic smooth muscle cells; assay: Calponin and osteopontin expression in stretched rat aortic smooth muscle cells (Western blot); assay type: cell-based; conditions: 10 μM added every four hours; cyclic stretch 24 hrs
Procedure: The effect of Nox1 inhibition on the expression of certain protein markers of rat aortic smooth muscle cell contractile vs. synthetic phenotypes was evaluated. Cells were subjected to 24 hrs of cyclic stretch (10%, 1 Hz) with 10 μM NoxA1ds or SCRMB control being added every four hours. […] Calponin expression during stretch was rescued by the addition of 10 μM NoxA1ds, yet was unaffected by the addition of 10 μM scrambled peptide (SCRMB). A representative Western blot is shown below the graph (FIG. 9B). Osteopontin (OPN, a marker of the […] phenotype), expression increased after 24 hrs of stretch.

[3] = target: T1, interaction between Nox1 and NoxA1 (Homo sapiens, UniProt Q9Y5S8); assay: FRET between Nox1-YFP and NoxA1-CFP in transfected COS22 cells; assay type: cell-based; conditions: 10 μM, one hour prior to imaging
T1 construct: expressed in transfected cells; host or cells: COS22
T1 sequence (Q9Y5S8 1-564): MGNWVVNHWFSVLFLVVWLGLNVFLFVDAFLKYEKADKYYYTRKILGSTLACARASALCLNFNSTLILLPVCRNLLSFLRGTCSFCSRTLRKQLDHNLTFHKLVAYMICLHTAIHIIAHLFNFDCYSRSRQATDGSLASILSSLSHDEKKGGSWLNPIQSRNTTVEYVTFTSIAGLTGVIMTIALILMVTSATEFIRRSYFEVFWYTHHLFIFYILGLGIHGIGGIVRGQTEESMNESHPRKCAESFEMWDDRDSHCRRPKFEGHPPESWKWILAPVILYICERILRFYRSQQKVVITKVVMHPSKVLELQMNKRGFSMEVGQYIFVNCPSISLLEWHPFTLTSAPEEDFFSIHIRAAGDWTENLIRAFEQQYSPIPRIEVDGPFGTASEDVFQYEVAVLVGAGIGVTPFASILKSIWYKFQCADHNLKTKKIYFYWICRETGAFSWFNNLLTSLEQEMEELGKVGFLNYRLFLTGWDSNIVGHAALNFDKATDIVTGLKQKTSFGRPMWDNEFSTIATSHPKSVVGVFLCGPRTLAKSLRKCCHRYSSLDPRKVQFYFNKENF
T1 sequence (P13498 2-195 partner limits assumed): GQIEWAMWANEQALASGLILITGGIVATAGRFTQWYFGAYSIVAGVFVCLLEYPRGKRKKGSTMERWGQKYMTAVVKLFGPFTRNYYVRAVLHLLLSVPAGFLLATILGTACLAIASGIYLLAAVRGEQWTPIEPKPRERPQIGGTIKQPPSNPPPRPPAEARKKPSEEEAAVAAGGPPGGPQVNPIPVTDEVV
Procedure: FRET (fluorescence resonance energy transfer) studies were performed to study the effect of NoxA1ds on the interaction between Nox1 and NoxA1: In particular, FRET between Nox1-YFP and NoxA1-CFP transfected COS22 cells in the presence or absence of 10 μM NoxA1ds or SCRMB was evaluated. Relative fluorescence of CFP is green while YFP is red. Traces underneath the images indicate fluorescent intensities of CFP and YFP underneath the arrow overlaid on each cell.

Nox1 = target: T2, Nox1 (Homo sapiens, UniProt Q9Y5S8); assay: O2- production by COS22 cells transfected with Nox1 (cytochrome c reduction); assay type: cell-based; conditions: increasing concentrations
T2 construct: expressed in transfected cells; host or cells: COS22 (monkey kidney COS cells stably expressing human p22phox)
T2 sequence (Q9Y5S8 1-564): T1 sequence (Q9Y5S8 1-564)
T2 sequence (P13498 1-195 partner): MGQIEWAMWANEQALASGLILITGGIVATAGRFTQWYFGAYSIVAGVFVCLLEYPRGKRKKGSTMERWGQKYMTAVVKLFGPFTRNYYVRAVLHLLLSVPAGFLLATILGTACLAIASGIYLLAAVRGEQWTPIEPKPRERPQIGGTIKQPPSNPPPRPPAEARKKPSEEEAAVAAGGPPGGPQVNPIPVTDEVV
Procedure: Experiments were performed to test the effect of NoxA1ds on O2^− production by Nox1. COS22 is a monkey kidney COST cell line expressing transgenic human p22phox and was produced by stable transfection of the full-length p22phox cDNA into parental COST wild-type cells. COS22 cells were transfected with Nox1 to express the Nox1 enzyme and were then treated with either NoxA1ds or its scrambled control (SCRMB). Production of O2^− was calculated by monitoring the reduction of cytochrome c for 15 minutes post NADPH addition and subtracting baseline cytochrome c reduction occurring in the presence of SOD.

[4] = test system: human pulmonary artery endothelial cells; assay: Hypoxia-induced superoxide production by human pulmonary artery endothelial cells; assay type: cell-based
Procedure: Experiments were also performed to evaluate the effect of NoxA1ds on hypoxia-induced superoxide production by human pulmonary artery endothelial cells.

Nox1-YFP = assay: Image cross correlation spectroscopy (ICCS) of R-NoxA1ds and Nox1-YFP; assay type: binding; conditions: ICCS, 100 images 0.05 s apart
Procedure: An ELISA of Nox1:NoxA1ds interaction was performed as follows. Neutravidin coated plates were incubated with biotin-tagged NoxA1ds (Biotin-NoxA1ds) or biotin-tagged SCRMB (Biotin-SCRMB) before addition of cell membranes prepared from cells transfected with Nox1 (Nox1 membrane) or transfected with an empty vector (COS22 membrane). Bound Nox1 was detected through a FITC conjugated secondary antibody (αRabbit Ab Sigma F9887) bound to the Nox1 primary antibody (rabbit αNox1 Ab (SC-25545, Santa Cruz Biotechnology)). FITC fluorescence was expressed as binding as % COS22 membranes on each experimental day. […] To further confirm the association, image cross correlation spectroscopy (ICCS) was used to determine patterns in signal fluctuation between rhodamine-labeled NoxA1ds (R-NoxA1ds) and Nox1-YFP though a sequence of 100 images 0.05 s apart. Correlation and cross-correlation was calculated using an ImageJ plugin.

| Substance | Inhibition of O2- production by HT-29 cells [1] | Calponin expression during stretch [2] | Osteopontin (OPN) expression during stretch [2] | CFP fluorescence after photobleaching of Nox1-YFP (FRET) [3] | Inhibition of Nox1-derived O2- production (Nox1) | O2- production under hypoxia ([4]; hypoxia 1.0% O2, 24 hrs) | O2- production under normoxic conditions ([4]; normoxia) | Fractional binding of Nox1-YFP and R-NoxA1ds (Nox1-YFP) |
| --- | --- | --- | --- | --- | --- | --- | --- | --- |
| SCRMB: inactive, scrambled version of NoxA1ds (negative control) (H-LVKGPDAEKVA-NH2) [reference compound] | did not inhibit | unaffected | unaffected | resulted in a concomitant increase in CFP fluorescence | did not inhibit | unaffected | negligible effect |  |
| R-NoxA1ds: rhodamine-labeled NoxA1ds (EPVDALGKAKV-NH2; also: rhodamine label, position not given here) |  |  |  |  |  |  |  | ~1.0 |

Reference: patent publication US9770481B2, “Inhibitors of NOX1” (UNIVERSITY OF PITTSBURGH—OF THE COMMONWEALTH SYSTEM OF …, priority 2011, dated 2017)
